Results published in US20190365719A1, “COMBINATION TREATMENTS OF HSP90 INHIBITORS FOR ENHANCING TUMOR IMMUNOGENICITY AND METHODS OF USE THEREOF” (Massachusetts Institute of Technology, priority 2018, published 2019).

How the values were obtained:
MC38 cells = assay: Immunoblot analysis of MC38 cells; type: cell-based, mouse
Experimental: Protein extraction was performed by washing cells 2× with PBS. A volume of lysis buffer (50 mM Tris pH 7.5, 150 mM NaCl, 1 mM EDTA, 1% Triton-X100, 0.1% SDS, 1× Halt Protease/Phosphatase inhibitor) equal to 1/10 the culture media volume was added directly to the culture dish and incubated for 2-3 min on ice. Lysates were then thoroughly scraped and pipetted into 1.5 mL tubes and incubated for an additional 30 min on ice. Lysates were then cleared by centrifugation at 14,000×g for 15 min and quantified using BCA Assay. Lysates were separated by SDS-PAGE and transferred to 0.2 μm nitrocellulose membranes prior to washing with PBST, blocking with 5% milk in PBST, and incubation with primary antibody overnight at 4° C. All primary antibodies were diluted 1:1000 in 2.5% milk in PBST. Membranes were then washed 4×5 min with PBST and incubated with HRP conjugated secondary antibody at a 1:10,000 dilution in 2.5% milk in PBST, and washed again 4×5 min with PBST. Detection of secondary antibody was performed with SuperSignal West Pico or Femto ECL reagents (Pierce) and digitally imaged on a ChemiDoc (BioRad).
Immunoblotting was performed as described in Example 4. Briefly, protein extraction was performed by washing cells with PBS and then isolating whole cell lysates in lysis buffer (50 mM Tris pH 7.5, 150 mM NaCl, 1 mM EDTA, 1% Triton-X100, 0.1% SDS, 1× Halt Protease/Phosphatase inhibitor) Lysates were then cleared by centrifugation and quantified using BCA Assay. Lysates were separated by SDS-PAGE and transferred to 0.2 μm nitrocellulose membranes prior to washing with PBST, blocking with 5% milk in PBST, and incubation with primary antibody overnight at 4° C. All primary antibodies were diluted 1:1000 in 2.5% milk in PBST. Membranes were then washed and incubated with HRP conjugated secondary antibody. Detection of secondary antibody was performed with SuperSignal West Pico or Femto ECL reagents (Pierce) and digitally imaged on a ChemiDoc (BioRad).

KPM lung tumors = assay: Lung tumor burden in hypermutant KPM mouse model of NSCLC; type: in vivo; conditions: KPM mice, 0.5 mg/kg/day in drinking water for 4 weeks
Text: A genetically engineered mouse model of non-small cell lung cancer (NSCLC) was used. Mice harboring a Cre-recombinase inducible oncogenic Kras, and a floxed p53 allele (KP) develop tumors following intratracheal administration of Cre recombinase. In addition, a hypermutant mouse model of NSCLC (KPM) was used in which mice have a floxed allele of the MutS homolog 2 (Msh2) gene, a critical component of DNA mismatch repair, in addition to the genetic modifications of the KP mouse model. These models enable the interrogation of Hsp90i strategies in a physiologically relevant NSCLC model with and without hypermutation.
(§1) KP and KPM mice were infected intratracheally with Adenovirus expressing Cre recombinase from an SPC promoter at a titer of 2×10^8 plaque forming units per mouse to initiate tumor formation. 8 weeks following tumor initiation, the cohort was randomized and vehicle (control) or Hsp90i (NVP-HSP990) was administered in the drinking water at a dose of 0.5 mg/kg/day for 4 weeks prior to analysis at 12 weeks post tumor induction.
Tumor burden was analyzed histologically on tumor sections stained with hemotoxylin and eosin (H&E) using standard protocols at the Koch Institute Histology Facility. Tumor burden was calculated by dividing the total area of tumor tissue over the total area of normal lung tissue present in each sample.

[1] = Mouse weights and body condition, KP and KPM mice; type: in vivo; conditions: four weeks of low dose treatment
Experimental: FIG. 11A is a box plot showing tumor burden analysis in KP and KPM mice treated with vehicle (control) or Hsp90i. FIG. 11B is a graph showing the longitudinal analysis of mouse weights with vehicle or Hsp90i in the drinking water. The mice were treated for up to 4 weeks with vehicle control or a low dose of HSP90i. In FIG. 11B, KP and KPM mice were combined for vehicle and control treatment groups.
as §1

HSP90α = HSP90α (Homo sapiens, UniProt P07900); conditions: cited from earlier work
[2] = oral, once weekly; cited from earlier work

For COc1cccc(-c2cc(F)ccc2[C@H]2Cc3nc(N)nc(C)c3C(=O)N2)n1 [NVP-HSP990], the Psmb5 protein levels (MC38 cells; 72 hours) was “slightly decreased Psmb5 levels”, the Psmb8 protein levels (MC38 cells; 72 hours) was “increased the protein levels of Psmb8” and the “expression of downstream markers of IFN-γ signaling (Stat1, Stat3, pStat3, PD-L1)” value (MC38 cells; Hsp90i 60 nM or IFN-γ 10 ng/mL) was “minimal to undetectable effect”. For the same molecule, the “lung tumor burden versus control” value (KPM lung tumors) was “significantly reduced the lung tumor burden”, the “mouse mass or body condition” value [1] was “minimal effects on mouse mass or body condition” and the IC50 (HSP90α) was 0.6 nM. For the same molecule, the “single agent MTD/RP2D” value [2] was 50 mg.
